According to PMC6550521, “Stress-Induced Changes in the Lipid Microenvironment of β-(1,3)-D-Glucan Synthase Cause Clinically Important Echinocandin Resistance in Aspergillus fumigatus” (mBio, 2019):
Where “and” joins values, the source holds several entries; their conditions need not be identical. Equal entries are not always repeated.

Key:
[1] = target: β-(1,3)-D-glucan synthase of clinical isolate 117 (Aspergillus fumigatus, UniProt Q4WLT4); assay: Glucan synthase kinetic inhibition assay, enzyme from clinical isolate 117; format: biochemical; settings: enzyme from isolate 117 grown at 4 μg/ml CAS
[2] = target: β-(1,3)-D-glucan synthase of RG101 (Aspergillus fumigatus, UniProt Q4WLT4); assay: Glucan synthase kinetic inhibition assay, enzyme from RG101; format: biochemical
Sequence of β-(1,3)-D-glucan synthase of RG101 (Q4WLT4 1-1904): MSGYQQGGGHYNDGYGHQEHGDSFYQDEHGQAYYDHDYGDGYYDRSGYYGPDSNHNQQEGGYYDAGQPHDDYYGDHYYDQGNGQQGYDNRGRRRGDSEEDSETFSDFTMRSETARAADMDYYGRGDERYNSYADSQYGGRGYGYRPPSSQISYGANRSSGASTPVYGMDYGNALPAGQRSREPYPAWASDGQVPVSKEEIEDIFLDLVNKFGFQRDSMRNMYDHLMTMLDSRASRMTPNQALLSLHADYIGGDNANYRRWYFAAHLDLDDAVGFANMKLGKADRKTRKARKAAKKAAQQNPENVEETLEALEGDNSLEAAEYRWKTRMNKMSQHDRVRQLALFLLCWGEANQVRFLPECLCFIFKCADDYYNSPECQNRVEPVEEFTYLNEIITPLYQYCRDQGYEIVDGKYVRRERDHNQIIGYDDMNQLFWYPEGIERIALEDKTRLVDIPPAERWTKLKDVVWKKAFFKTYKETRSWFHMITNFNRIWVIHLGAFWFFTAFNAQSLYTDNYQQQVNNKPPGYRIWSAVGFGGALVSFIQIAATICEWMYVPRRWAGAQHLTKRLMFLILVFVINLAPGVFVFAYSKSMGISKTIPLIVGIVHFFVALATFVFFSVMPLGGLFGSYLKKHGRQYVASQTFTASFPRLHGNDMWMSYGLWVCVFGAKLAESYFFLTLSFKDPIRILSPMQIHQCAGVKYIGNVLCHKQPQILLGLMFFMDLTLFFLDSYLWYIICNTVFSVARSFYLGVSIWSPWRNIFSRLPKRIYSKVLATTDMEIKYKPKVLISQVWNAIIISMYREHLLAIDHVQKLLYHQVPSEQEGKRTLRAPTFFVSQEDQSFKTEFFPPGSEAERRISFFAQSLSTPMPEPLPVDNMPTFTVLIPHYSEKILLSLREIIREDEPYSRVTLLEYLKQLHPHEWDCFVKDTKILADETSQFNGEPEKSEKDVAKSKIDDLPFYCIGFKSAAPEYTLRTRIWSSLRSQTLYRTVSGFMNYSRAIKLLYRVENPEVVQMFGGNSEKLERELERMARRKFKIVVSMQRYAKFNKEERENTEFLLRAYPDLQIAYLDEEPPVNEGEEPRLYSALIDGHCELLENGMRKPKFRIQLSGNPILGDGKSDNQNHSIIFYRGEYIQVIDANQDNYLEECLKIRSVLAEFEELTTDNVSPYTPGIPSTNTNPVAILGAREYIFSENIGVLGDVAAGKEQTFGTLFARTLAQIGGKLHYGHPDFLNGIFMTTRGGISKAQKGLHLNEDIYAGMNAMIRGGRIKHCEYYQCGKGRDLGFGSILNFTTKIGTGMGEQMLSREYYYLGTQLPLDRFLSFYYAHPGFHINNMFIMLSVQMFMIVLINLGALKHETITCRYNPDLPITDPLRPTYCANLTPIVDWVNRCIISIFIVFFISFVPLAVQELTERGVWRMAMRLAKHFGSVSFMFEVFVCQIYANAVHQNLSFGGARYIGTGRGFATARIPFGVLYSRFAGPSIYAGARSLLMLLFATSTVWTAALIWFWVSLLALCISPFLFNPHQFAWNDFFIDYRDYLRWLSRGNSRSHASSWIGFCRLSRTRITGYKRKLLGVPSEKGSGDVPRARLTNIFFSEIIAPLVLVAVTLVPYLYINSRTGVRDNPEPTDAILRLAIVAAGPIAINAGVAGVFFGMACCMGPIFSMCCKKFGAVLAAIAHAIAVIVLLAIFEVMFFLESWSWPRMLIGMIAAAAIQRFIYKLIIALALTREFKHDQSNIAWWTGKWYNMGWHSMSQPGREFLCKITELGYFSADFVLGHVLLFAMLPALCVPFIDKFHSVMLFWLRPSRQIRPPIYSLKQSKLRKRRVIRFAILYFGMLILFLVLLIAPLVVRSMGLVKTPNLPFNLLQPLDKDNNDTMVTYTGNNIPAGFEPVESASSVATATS
Description: ATCC 13073 or RG101 was grown in liquid YPD medium at 37°C for 16 h. Partially purified glucan synthase was isolated by the product entrapment method, as previously described ([21]). Sensitivity to echinocandin drugs was measured by glucan synthase assay, using a 96-well multiscreen high-throughput screen filtration system (Millipore Corporation, Bedford, MA) in a final volume of 100 μl. Inhibition of the enzyme by the drug was analyzed after incubation of the enzyme with a radioactive substrate over a broad range of concentrations (0 to 10,000 ng/ml) of echinocandins for 1 h at room temperature. Radioactivity from the enzyme product, β-(1,3)-D-glucan, was measured. Inhibition profiles were determined using a sigmoidal response curve fitting algorithm with GraphPad Prism software (v 7.04).
To study the effect of lipids on the enzyme, dihydrosphingosine, phytosphingosine, or phytoceramide C2 (Sigma-Aldrich D6783, P2795, and C8105, respectively) was added directly to the assay mixture and coincubated with an echinocandin for 1 h at room temperature.

A. fumigatus ATCC 13073 = assay: Antifungal susceptibility testing (MEC, CLSI M38-A2); format: cell-based, Aspergillus fumigatus
Description: (§1) Minimum effective concentrations (MECs) for A. fumigatus strains were determined according to CLSI document M38-A2 ([48]) and defined as the lowest drug concentration that led to the growth of small, rounded, compact hyphal forms compared to the hyphal growth seen in the drug-free growth control wells. The following drugs (supplier) were tested: caspofungin (Merck & Co., Inc.), micafungin (Astellas Pharma US, Inc.), anidulafungin (Pfizer Inc.), itraconazole (Sigma-Aldrich), voriconazole (Pfizer Inc.), and amphotericin B (Sigma-Aldrich). In addition, rezafungin and ibrexafungerp were obtained from Cidara Therapeutics and Scynexis Inc., respectively.

[3] = system: A. fumigatus S679P (fks1 Ser-679-Pro mutant); assay: as above; format: cell-based, Aspergillus fumigatus; settings: S679P, fks1 Ser-679-Pro
Description: as §1

[4] = target: β-(1,3)-D-glucan synthase of clinical isolate 32458 (Aspergillus fumigatus, UniProt Q4WLT4); assay: Glucan synthase kinetic inhibition assay, enzyme from clinical isolate 32458; format: biochemical; settings: enzyme from isolate 32458 grown at 4 μg/ml CAS
A. fumigatus RG101 = assay: Acute pulmonary aspergillosis model in neutropenic DBA/2 mice, lung fungal burden by qPCR; format: in vivo, Aspergillus fumigatus
Description: Resistance of RG101 to CAS in vivo was tested in an acute pulmonary aspergillosis model. Thirty inbred DBA/2 mice were rendered neutropenic and infected with 1 × 10^6 RG101 conidia intratracheally. The mice were then treated with CAS (5 mg/kg of body weight), MFG (5 mg/kg), or vehicle daily for 5 days, and lung burdens were determined using quantitative PCR (qPCR). Details of the experiment are provided in Text S1 in the supplemental material.
All animal experiments performed were approved by the Rutgers University Institutional Animal Care and Use Committee. Thirty female DBA/2 mice [The Jackson Laboratory, Bar Harbor, ME] were used in the experiment. The mice were housed in cages equipped with HEPA filters and were allowed free access to food and water. To establish neutropenia, mice were immunosuppressed with cyclophosphamide on days -4 (150 mg/kg), -1 and +2 (100 mg/kg) intraperitoneally (ip) and hydrocortisone on day -1 (200 mg/kg) via subcutaneous injection (sc). The animals were given prophylaxis sc ceftazidime (50 mg/kg) on all days to prevent secondary bacterial infections. A. fumigatus RG101 was streaked out from a frozen glycerol stock and cultured on Potato dextrose agar (PDA) slant for 2 days. The spores were harvested in phosphate-buffered saline (PBS) with 0.05% (v/v) Tween 20 and counted in a hemocytometer. The mice were briefly anesthetized IP Ketamine (65 mg/kg)/Xylazine (5 mg/kg) and infected with 1×10^6 spores of RG101 in 25 µL volume via intratracheal instillation. The 30 RG101 infected mice were randomized into following treatment arms for IP treatment: vehicle, CAS (5 mg/kg), and MFG (5 mg/kg). The first treatment was given at 3 h post infection (PI) and continued daily treatments were administered. On day 5 PI, mice were humanely euthanized via CO2 narcosis. Lungs were excised and homogenized in 1 ml of sterile PBS using a 2 ml tube containing ceramic spheres by MP Biomedicals (116913500). Tissue was then homogenized in 20 s bursts in a mini bead beater (MP FastPrep-24) followed by cooling on ice. DNA was then isolated from an aliquot of the lung homogenate (100 μl) using the QIAamp DNA Mini Kit by Qiagen (51304) and analyzed by real-time quantitative PCR (qPCR) using primers specific for A. fumigatus 18S rRNA genes (Wiederhold et al 2004).

[5] = system: lipid microenvironment of glucan synthase of RG101; assay: Lipid analysis (LC-MS/MS) of partially purified glucan synthase; format: cell-based, Aspergillus fumigatus; settings: RG101 grown with CAS 1 μg/ml
Description: (§2) Approximately 10 μg/ml of partially purified glucan synthase of RG101 and clinical isolates was analyzed for lipid content by LC-MS/MS ([50]) at the Lipidomics Shared Resource of the Medical University of South Carolina (http://www.hollingscancercenter.org/research/shared-resources/lipidomics/index.html).

[6] = system: lipid microenvironment of glucan synthase of clinical isolates 117, 2770 and 32458; assay: as above; format: cell-based, Aspergillus fumigatus; settings: isolates 117, 2770, 32458 treated with CAS
Description: as §2

[7] = target: β-(1,3)-D-glucan synthase of clinical isolate 2770 (Aspergillus fumigatus, UniProt Q4WLT4); assay: Glucan synthase kinetic inhibition assay, enzyme from clinical isolate 2770; format: biochemical; settings: enzyme from isolate 2770 grown at 4 μg/ml CAS
Sequence of β-(1,3)-D-glucan synthase of clinical isolate 2770 (Q4WLT4 1-1904): as above

fks1 expression in RG101 = assay: fks1 expression by RT-PCR; format: cell-based, Aspergillus fumigatus; settings: RG101, 16 h in YPD, CAS 1 and 4 μg/ml
Description: Supplementary file : FIG S1 fks1 expression levels in RG101 under uninduced and CAS-induced conditions. RG101 conidia were grown for 16 h in YPD in the absence and presence of CAS (1 and 4 μg/ml), and expression levels of fks1 were compared using reverse transcription-PCR (RT-PCR). […] Download FIG S1, DOCX file, 0.02 MB.

CC[C@H](C)C[C@H](C)CCCCCCCCC(=O)N[C@H]1C[C@@H](O)[C@@H](NCCN)NC(=O)[C@@H]2[C@@H](O)CCN2C(=O)[C@H]([C@H](O)CCN)NC(=O)[C@H]([C@H](O)[C@@H](O)c2ccc(O)cc2)NC(=O)[C@@H]2C[C@@H](O)CN2C(=O)[C@H]([C@@H](C)O)NC1=O [CAS, caspofungin]
IC50 [1]: > 9.15 µM | Loss of sensitivity (IC50 shift) of glucan synthase from RG101 grown with CAS versus without ([2]; RG101 grown in presence vs absence of CAS): 4 log orders | IC50 ([2]; enzyme from RG101 grown at 4 μg/ml CAS): > 9.15 µM | Drug susceptibility testing result, ATCC 13073 (A. fumigatus ATCC 13073; 24 h, Fig 1B): 0.12 µg/mL | MEC (minimum effective concentration) (A. fumigatus ATCC 13073; ATCC 13073, fks1 WT): 0.12 µg/mL | MEC (minimum effective concentration) [3]: 16 µg/mL | IC50 [4]: ~4.57 µM | Decrease in lung burden versus vehicle-treated group (A. fumigatus RG101; RG101, 5 mg/kg daily for 5 days): No significant differences | Average fungal lung burden (A. fumigatus RG101; RG101 intratracheal, 5 mg/kg daily IP for 5 days, qPCR): 22.6 ng fungal DNA per lung | Increase in abundance of dihydrosphingosine (DhSph), CAS-treated vs untreated [5]: 2 fold and 3 fold | Increase in abundance of phytoceramide (C24), CAS-induced vs uninduced [5]: 3 fold | Increase in abundance of phytosphingosine (PhSph), CAS-treated vs untreated [5]: 10 fold | Abundance of DhSph and PhSph in enzyme preparations of CAS-treated clinical isolates [6]: significantly increased abundance | IC50 [7]: > 9.15 µM | fks1 expression levels, CAS-induced vs uninduced (fks1 expression in RG101): No significant differences
